Results on one substance are retold here after US20040242537A1, “Acetylation method of chitosan” (priority 2001, published 2004).

For this data set the following is noted: pH 7.

For chitosan, the “solubility according to pH” value was “rapid decrease in solubility”.
